The target in the assay is T1, Angiotensin II Receptor (Bos taurus, UniProt P25104).
T1 construct: The brownish tissue forming the adrenal cortex is scraped off and finely minced with scissors before homogenization; tissue local slaughter house (Maxwell-Cohen); host or cells: beef adrenal cortex, microsomal membranes (100,000×g pellet)
T1 sequence (P25104 1-359): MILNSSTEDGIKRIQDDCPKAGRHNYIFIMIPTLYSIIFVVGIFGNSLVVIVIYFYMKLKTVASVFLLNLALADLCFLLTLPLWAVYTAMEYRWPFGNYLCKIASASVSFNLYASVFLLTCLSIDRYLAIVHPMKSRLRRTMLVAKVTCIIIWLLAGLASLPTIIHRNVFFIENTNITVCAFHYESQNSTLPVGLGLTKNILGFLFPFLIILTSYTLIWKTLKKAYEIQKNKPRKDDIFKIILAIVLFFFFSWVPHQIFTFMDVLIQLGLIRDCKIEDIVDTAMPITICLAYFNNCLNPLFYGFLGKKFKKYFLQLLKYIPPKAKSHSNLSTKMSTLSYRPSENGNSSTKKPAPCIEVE
Briefly: Receptor binding assay: competition of [^125 I](Sar^1,Ile^8)AngII binding to beef adrenal cortex microsomal membranes. To be noted: 60 min, room temperature, pH 7.4.

As a reminder, the IC50 is the concentration at which inhibition is half-maximal. A high value points to weaker potency.

`CCCCc1nc2ccc(C3CC(c4ccc(C)o4)=NO3)cc2c(=O)n1Cc1ccc(-c2ccccc2-c2nnn[nH]2)cc1` (stereo not shown) [Example 19]: the IC50 stood at 0.17 µM.

The values above are taken from US5284853A, “Angiotensin II receptor blocking 2,3,6 substituted quinazolinones” (American Cyanamid Company, priority 1993, dated 1994).
